# Assay results as given in patent US9227956B2 (Pfizer Inc., priority 2013, dated 2016).
# What was measured:
# [1] = system: human PCSK9; experiment: Cell Free PCSK9 Assay (PCSK9-luciferase RNA translated in HeLa cell lysate); type: biochemical; conditions: 30° C. for 45 minutes, luciferase readout, top concentration 100 μM
# [2] = system: PCSK9; experiment: Global Proteomic Assay (SILAC), PCSK9 protein expression in conditioned media; type: cell-based, human; conditions: Huh7 cells
# Method: At the end of the indicated time points, media was removed and protease/phosphatase inhibitors added prior to freezing at −80° C. Cell layers were rinsed with PBS before adding cell dissociation buffer to detach the cells, cells were collected by rinsing with PBS and spun at 1000 rpm for 5 minutes. The cell pellet was resuspended in PBS for washing, spun at 1000 rpm for 5 minutes and the supernatant aspirated. The cell layer was then frozen at −80° C. and both the media and cell pellet were subjected to proteomic analysis.
# (§1) For proteomic analysis of secreted proteins, equal volume of the conditioned media from light, medium, and heavy cells was mixed, followed by depletion of bovine serum albumin by anti-BSA agarose beads. The resulting proteins were subsequently concentrated using 3 KDa MWCO spin columns, reduced with dithiothreitol and alkylated with iodoacetamide.
# The proteins derived from conditioned media and cell pellets were subsequently fractionated by SDS-PAGE. […]
# (§2) The peptide mixtures were reconstituted in 0.1% formic acid. […] Peptide identification and relative protein quantification were carried out by searching the mass spectra against the human IPI database using Mascot search engine on Proteome Discoverer 1.3. […] Changes in protein expression upon compound treatment were calculated from the relative intensity of isotope-labeled and unlabeled peptides derived from that protein.
# [3] = system: Huh7 cells; experiment: Global Proteomic Assay (SILAC), non-PCSK9 proteins with decreased expression; type: cell-based, human
# Method: Cell layers were rinsed with PBS before adding cell dissociation buffer to detach the cells, cells were collected by rinsing with PBS and spun at 1000 rpm for 5 minutes. The cell pellet was resuspended in PBS for washing, spun at 1000 rpm for 5 minutes and the supernatant aspirated. The cell layer was then frozen at −80° C. and both the media and cell pellet were subjected to proteomic analysis.
# as §1
# For the analysis of cellular proteins, cell pellets were lysed in SDS-PAGE loading buffer in the presence of protease/phosphatase inhibitor cocktails. Cell lysates were centrifuged at 12000×g at 4° C. for 10 min. The resulting supernatants were collected, and protein concentrations were measured by BCA assay. Equal amount proteins in the light, medium, and heavy cell lysates were combined, reduced with dithiothreitol and alkylated with iodoacetamide.
# The proteins derived from conditioned media and cell pellets were subsequently fractionated by SDS-PAGE. The gels were stained with Coomassie blue. After destaining, the gels were cut into 12-15 bands. Proteins were in-gel digested by trypsin overnight, after which peptides were extracted from the gels with CH3CN:1% formic acid (1:1, v/v). The resulting peptide mixtures were desalted with C18 Stage-Tips, dried in speedvac and stored at −20° C. until further analysis.
# as §2
# [4] = system: PCSK9; experiment: PCSK9 lowering in sandwich culture human hepatocytes (SCHH); type: cell-based; conditions: maximum response versus vehicle; at 8 h at 30 μM
# [5] = system: human PCSK9; experiment: PCSK9 AlphaLISA assay, PCSK9 lowering in WT7 cells; conditions: WT7 cells (Huh7 stably over-expressing human PCSK9); secreted PCSK9 by AlphaLISA; overnight incubation (16-24 h); top concentration 20 μM; read-out: Cell Based PCSK9 IC50
IC50 [1],Sandwich Culture Hepatocyte (SCHH) PCSK9 Lowering [4],IC50 [5],SMILES,"decrease of PCSK9 protein expression in the conditioned media ([2]; 16 hours of treatment, 0.3 μM)","cellular proteins significantly decreased ([3]; 2 proteins (Apolipoprotein C3, Cadherin 1) of greater than 3000 cellular proteins)",additional proteins with significant reduction in expression (media and cells) ([3]; 4 of 4083 proteins),"PCSK9 in conditioned media relative to vehicle ([2]; 10 μM, 4 and 16 h post-treatment)","additional proteins in conditioned media with significant decrease in expression ([3]; 10 μM, 4 and 16 h, two proteins (Apolipoprotein A2, Cadherin 1) of approx. 1500)"
0.52 µM,87% at 8 h at 30 μM,–,"O=C(c1ccc(-n2nnc3cccnc32)cc1)N(c1ncccc1Cl)[C@@H]1CCCNC1 [Example 16, N-(3-chloropyridin-2-yl)-N-[(3R)-piperidin-3-yl]-4-(3H-[1,2,3]triazolo[4,5-b]pyridin-3-yl)benzamide]",2 fold,0.067%,0.098%,–,–
5 µM,58% at 8 h at 30 μM,10.7 µM,"CCOC(=O)O[C@H](C)OC(=O)c1c(-c2ccc(C(=O)N(c3ncccc3Cl)[C@@H]3CCCNC3)cc2)cnn1C [Example 15b, (1R)-1-[(ethoxycarbonyl)oxy]ethyl 4-(4-{(3-chloropyridin-2-yl)[(3R)-piperidin-3-yl]carbamoyl}phenyl)-1-methyl-1H-pyrazole-5-carboxylate]",–,–,–,significantly reduced,approx. 0.13%
